Patent publication US12338229B2, “Small molecule stimulators of steroid receptor coactivator-3 and methods of their use as cardioprotective and/or vascular regenerative agents” (BAYLOR COLLEGE OF MEDICINE, priority 2018, dated 2025)

Experiments:
cardiac fibroblasts = test: Tube formation assay; format: cell-based, mice; conditions: adult cardiac fibroblasts, 6 μM, 24 hours
Description: Tube formation assay. Cardiac fibroblasts were treated with either DMSO or 6 μM MCB-613. Twenty four hours post treatment, drug was washed off by rinsing the cells twice with PBS. The cells were then conditioned with endothelial cell growth media for 24 hours. Post conditioning, cells were plated on growth factor reduced matrigel (10 mg/ml) to allow for tube formation overnight. The next day tubes were stained with Calcein AM and imaged using the Cytation imaging system.

[1] = tested on: non-cardiomyocyte cells of hearts post-MI; test: Single cell transcriptional profiling of non-cardiomyocytes post-MI; format: in vivo, mice
Description: Isolation of cardiac cells for single cell transcription profiling. Mice were placed under the surgical plane of anesthesia before cervical dislocation. The hearts were removed and cells were isolated by Langendorff retrograde perfusion of calcium-free pH 7.4 Tyrodes solution (130 mM NaCl, […], 0.5 mM MgCl, 0.33 mM NaH2PO4, 0.25 mm HEPES, 22 mM glucose) with collagenase, 1 mg/mL for 15 minutes. The hearts were then removed from the apparatus, and finely minced in the same Tyrodes buffer with 15 mg/mL bovine serum albumin (BSA) before trituration with a glass pipette. Cardiomyocytes were then pelleted by differential centrifugation, 300 RPM for 3 minutes. The supernatant containing the noncardiomyocyte population of cells was then filtered through a 70 micron filter and pelleted at 750 G, and resuspended in 1.1 mL 2% fetal bovine serum (FBS) in phosphate buffered saline (PBS). 0.1 mL was removed for the “no stain control” for fluorescence-activated cell sorting (FACS). The other 1 mL was incubated with 4 ug/mL Calcein Blue and 10 microM DyeCycle Ruby and incubated at 37° C. for 10 minutes. The cells were then spun down at 600G, and resuspended in 0.5 mL 2% FBS/PBS containing Sytox Green (30 nM). […] The cells were then pelleted and resuspended in 100 uL 0.4% FBS in PBS, counted, and then flowed through the 10×Genomics Chromium system for single cell transcriptomic profiling.
Isolation of cardiac cells. […] Then, 0.1 mL of the mixture was removed for the “no stain control” for fluorescence-activated cell sorting (FACS). […] The cells were then pelleted and resuspended in 100 μL 0.4% FBS in PBS, counted, and passed through the 10× Genomics Chromium system.
Single-cell RNA-sequencing. […] To identify cell clusters and differentially expressed genes, the Cell Ranger results were analyzed with Seurat suite version 3.0.0 implemented in R (version 3.4.3). Cells with <200 or >5,000 unique genes expressed or >25% of reads mapping to mitochondria were removed as quality control measure. […]

[2] = Toxicity profile in vitro and in vivo
[3] = tested on: SRC-1, SRC-2 or SRC-3 fused with the DNA binding domain of Gal4; test: Gal4 luciferase reporter (pG5-luc / pBIND-SRC) in HeLa cells; format: cell-based; conditions: pG5-luc + pBIND-SRC-1, -2 or -3
From the text: The compounds described herein stimulate SRC intrinsic transcriptional activity. HeLa cells transfected with a Gal4 responsive luciferase reporter (pG5-luc) and a construct encoding SRC-1, SRC-2 or SRC-3 fused with the DNA binding domain of Gal4 (pBIND-SRC-1, pBIND-SRC-2 or pBIND-SRC-3) were exposed to treatments with compounds as described herein, including MCB-613, Compound 10-1, and Compound 10-2.

[4] = tested on: mice after myocardial infarction; test: Progressive maximal exercise test, indirect calorimetry (VO2, VCO2); format: in vivo; conditions: three weeks post-MI
Description: RER, VO2 and VCO2 measurements. Respiratory exchange ratio (RER), oxygen consumption (VO^2) and carbon dioxide expiration (VCO2) were measured by indirect calorimetry using a progressive maximal exercise test until mice reached exhaustion.
RER, VO2 and VCO2 measurements. RER, VO2 and VCO2 were measured by indirect calorimetry using a progressive maximal exercise test until mice reached exhaustion.

[5] = tested on: GAL4-DBD full length SRC-1, -2 or -3 fusion; test: GAL4 luciferase reporter assay in cardiac fibroblasts; format: cell-based, mice; conditions: 6 μM, SRC-3 vs SRC-1 and SRC-2
Description: Reporter assay. Cardiac fibroblasts were plated in six well plates and transfected with a GAL4 responsive luciferase reporter (pG5-luc) and expression vectors for a GAL4 DNA binding domain (GAL4-DBD) full length SRC-1, -2 or -3 fusion construct (pBIND-SRC-1, pBIND-SRC-2 or pBIND-SRC-3) or pBIND control using Lipofectamine 3000 (Invitrogen; Carlsbad, CA). Twenty-four (24) hours post transfection, cells were treated with 6 μM MCB-613 or dimethyl sulfoxide (DMSO) and incubated overnight. Post treatment cells were lysed and total protein was isolated using the Promega luciferase assay system (Promega Life Sciences; Madison, WI). Protein concentration was measured using a Bradford assay (Bio-Rad Laboratories; Hercules, CA). Relative light units were measured and normalized to total protein concentration.

In the case of `CCC1C/C(=C\c2cccnc2)C(=O)/C(=C/c2cccnc2)C1` (centres unmarked) [MCB-613], the tube formation (cardiac fibroblasts) is reported as “stimulated tube formation”, the endothelial cell growth ([1]; 10 weeks post-MI) is reported as “stimulates endothelial cell growth of two distinct endothelial cell populations” and the “changes in non-cardiomyocyte cell number” value ([1]; 12 weeks post-MI) is reported as “macrophage cluster 1 and B lymphocytes decreased in number while epicardial cells, NK/T lymphocytes, fibroblasts, and endothelial cells, including lymphatic cells, were increased in cell number”. For the same molecule, the “granulocyte functions (gene set enrichment)” value ([1]; 12 weeks post-MI) was “suppresses inflammatory granulocyte functions”, the toxicity profile [2] was “low toxicity profile in vitro and in vivo” and the “intrinsic transcriptional activity of SRCs (luciferase)” value [3] was “selectively stimulates the intrinsic transcriptional activity of SRCs”. The “VCO2 and VO2 during exercise” value [4] was “VCO2 and VO2 are elevated” and the “SRC activation (luciferase, RLU)” value [5] was “induced in response to MCB-613 to a greater extent than for SRC-1 and SRC-2”.
